This is an account of results in patent US12187723B2 (BRISTOL-MYERS SQUIBB COMPANY, priority 2019, dated 2025).

Each structure is given as a SMILES string. pIC50: −log10 of the molar value. Where a name gives a salt, the structure may show the parent alone.

In this test the target is T1, human TLR8 (Homo sapiens, UniProt Q9NR97).
T1 construct: host or cells: HEK-Blue cells
T1 sequence (Q9NR97 27-1041): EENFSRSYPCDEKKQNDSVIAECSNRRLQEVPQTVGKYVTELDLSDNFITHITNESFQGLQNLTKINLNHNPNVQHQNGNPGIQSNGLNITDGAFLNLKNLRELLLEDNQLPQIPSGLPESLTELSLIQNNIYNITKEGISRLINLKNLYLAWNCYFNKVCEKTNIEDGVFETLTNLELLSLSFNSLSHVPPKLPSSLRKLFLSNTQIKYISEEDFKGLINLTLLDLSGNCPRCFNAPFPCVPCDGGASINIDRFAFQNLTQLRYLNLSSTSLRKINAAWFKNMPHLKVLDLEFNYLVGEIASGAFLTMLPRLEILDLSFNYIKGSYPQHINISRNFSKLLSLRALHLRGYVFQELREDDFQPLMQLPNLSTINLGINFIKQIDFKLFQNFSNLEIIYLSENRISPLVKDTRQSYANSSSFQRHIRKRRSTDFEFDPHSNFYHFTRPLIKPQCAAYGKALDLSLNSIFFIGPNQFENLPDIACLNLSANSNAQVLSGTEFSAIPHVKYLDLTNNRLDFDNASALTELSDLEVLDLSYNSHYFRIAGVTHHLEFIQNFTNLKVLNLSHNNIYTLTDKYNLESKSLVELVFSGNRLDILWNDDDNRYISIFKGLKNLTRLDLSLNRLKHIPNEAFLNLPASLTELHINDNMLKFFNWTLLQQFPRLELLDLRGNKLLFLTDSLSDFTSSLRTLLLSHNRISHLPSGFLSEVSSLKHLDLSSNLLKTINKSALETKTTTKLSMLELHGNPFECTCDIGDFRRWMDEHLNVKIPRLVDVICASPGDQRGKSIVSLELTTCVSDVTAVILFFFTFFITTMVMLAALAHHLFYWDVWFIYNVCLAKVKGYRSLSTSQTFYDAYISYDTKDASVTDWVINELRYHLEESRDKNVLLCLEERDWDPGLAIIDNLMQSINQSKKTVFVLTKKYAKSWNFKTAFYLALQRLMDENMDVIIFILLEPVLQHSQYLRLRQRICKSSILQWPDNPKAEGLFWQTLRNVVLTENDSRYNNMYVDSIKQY
Kind of test: TLR8 inhibition reporter assay (HEK-Blue SEAP). It is filed as cell-based. The conditions noted are these: HEK-Blue cells overexpressing human TLR8, R848 15.9 μM, 22 hour incubation. The gist of the method: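 Human TLR7/8/9 HEK-Blue reporter lines; dose range 0.05 nM–50 μM; 30 min RT preincubation; stimulus gardiquimod 7.5 μM / R848 15.9 μM / ODN2006 5 nM respectively; 22 h, 37 °C; SEAP detected colorimetrically.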
The pIC50 is the IC50 on a negative log10 scale, so that one unit is a factor of ten. `COc1cc(-c2cc3[nH]c(=O)n(C4CCC(N5CCC(S(C)(=O)=O)C5)CC4)c3cc2C(C)C)cn2ncnc12` (single isomer, unassigned) [Example 288, 6-isopropyl-5-(8-methoxy-[1,2,4]triazolo[1,5-a]pyridin-6-yl)-1-(4-(3-(methylsulfonyl)pyrrolidin-1-yl)cyclohexyl)-1,3-dihydro-2H-benzo[d]imidazol-2-one] showed a negative logarithm of the IC50 (pIC50) of 9.12. Under `Cc1c(-c2cc3[nH]c(=O)n(C4CCC(N5CCCC(F)C5)CC4)c3cc2C(C)C)cn2ncnc2c1C` (stereo not drawn) [Example 273, 5-(7,8-dimethyl-[1,2,4]triazolo[1,5-a]pyridin-6-yl)-1-(4-(3-fluoropiperidin-1-yl)cyclohexyl)-6-isopropyl-1,3-dihydro-2H-benzo[d]imidazol-2-one] stands 9.06; under `Cc1cc(-c2cc(C)c3ncnn3c2)cc2[nH]c(=O)n(C3CCNCC3)c12` [106 F, 7-methyl-5-(8-methyl-[1,2,4]triazolo[1,5-a]pyridin-6-yl)-1-(piperidin-4-yl)-1,3-dihydro-2H-benzo[d]imidazol-2-one], 6.36; under `Cc1c(-c2cc3[nH]c(=O)n(C4CCC(N5CCC(F)(F)CC5)CC4)c3cc2C(C)C)cn2ncnc2c1C` (single isomer, unassigned) [Example 276, 1-(4-(4,4-difluoropiperidin-1-yl)cyclohexyl)-5-(7,8-dimethyl-[1,2,4]triazolo[1,5-a]pyridin-6-yl)-6-isopropyl-1,3-dihydro-2H-benzo[d]imidazol-2-one], 8.72. The result for `COc1c(C)c(-c2cc3[nH]c(=O)n(C4CCC(N5CC(OC)C5)CC4)c3cc2C(C)C)cn2ncnc12` (stereo not drawn) [Example 266, 6-isopropyl-5-(8-methoxy-7-methyl-[1,2,4]triazolo[1,5-a]pyridin-6-yl)-1-(4-(3-methoxyazetidin-1-yl)cyclohexyl)-1,3-dihydro-2H-benzo[d]imidazol-2-one] reads 8.35.

As to `COc1cc(-c2cc3[nH]c(=O)n([C@@H]4CCCNC4)c3cc2C(F)(F)F)cn2ncnc12` [110 F, (R)-5-(8-methoxy-[1,2,4]triazolo[1,5-a]pyridin-6-yl)-1-(piperidin-3-yl)-6-(trifluoromethyl)-1,3-dihydro-2H-benzo[d]imidazol-2-one], the pIC50 is 7.83. As to `COc1cc(-c2cc3[nH]c(=O)n(C4CCC(N5CCC(F)(F)CC5)CC4)c3cc2C(C)C)cn2ncnc12` (single isomer, unassigned) [Example 247, 1-(4-(4,4-difluoropiperidin-1-yl)cyclohexyl)-6-isopropyl-5-(8-methoxy-[1,2,4]triazolo[1,5-a]pyridin-6-yl)-1,3-dihydro-2H-benzo[d]imidazol-2-one], the negative-log IC50 (pIC50) was 9.15. The result for `Cc1cc2c(cc1-c1cc(C)c3ncnn3c1)[nH]c(=O)n2[C@@H]1CCCNC1` [1 ED, (R)-6-methyl-5-(8-methyl-[1,2,4]triazolo[1,5-a]pyridin-6-yl)-1-(piperidin-3-yl)-1,3-dihydro-2H-benzo[d]imidazol-2-one] reads 7.42; that for `COC[C@@H]1CCN(C2CCC(n3c(=O)[nH]c4cc(-c5cc(OC)c6ncnn6c5)c(C(C)C)cc43)CC2)C1` (single isomer, unassigned) [Example 291], 8.73.

`COC1CN(C2CCC(n3c(=O)[nH]c4cc(-c5cn6ncnc6c(C)c5C)c(C(C)C)cc43)CC2)C1` (single isomer, unassigned) [Example 278, 5-(7,8-dimethyl-[1,2,4]triazolo[1,5-a]pyridin-6-yl)-6-isopropyl-1-(4-(3-methoxyazetidin-1-yl)cyclohexyl)-1,3-dihydro-2H-benzo[d]imidazol-2-one]: the negative logarithm of the IC50 (pIC50) was 8.80.

On to `COc1c(C)c(-c2cc3[nH]c(=O)n(C4CCC(N5CCC6(CC5)COC6)CC4)c3cc2C(C)C)cn2ncnc12` (single isomer, unassigned) [Example 268, 1-(4-(2-oxa-7-azaspiro[3.5]nonan-7-yl)cyclohexyl)-6-isopropyl-5-(8-methoxy-7-methyl-[1,2,4]triazolo[1,5-a]pyridin-6-yl)-1,3-dihydro-2H-benzo[d]imidazol-2-one], for which the pIC50 was 8.97. The result for `COc1cc(-c2cc3[nH]c(=O)n(C4CCC(N5C[C@@H](F)[C@@H](F)C5)CC4)c3cc2C(C)C)cn2ncnc12` (single isomer, unassigned) [Example 292] reads 9.89; that for `COc1cc(-c2cc3[nH]c(=O)n(C4CCNCC4)c3cc2C)cn2ncnc12` [1 E, 5-(8-methoxy-[1,2,4]triazolo[1,5-a]pyridin-6-yl)-6-methyl-1-(piperidin-4-yl)-1H-benzo[d]imidazol-2(3H)-one, TFA], 6.65.

With `Cc1cc2c(cc1-c1cc(C)c3ncnn3c1)[nH]c(=O)n2[C@@H]1CCCN(C2CCOCC2)C1` [Example 27, (R)-6-methyl-5-(8-methyl-[1,2,4]triazolo[1,5-a]pyridin-6-yl)-1-(1-(tetrahydro-2H-pyran-4-yl)piperidin-3-yl)-1,3-dihydro-2H-benzo[d]imidazol-2-one], the pIC50 was 7.30. Under `Cc1c(-c2cc3[nH]c(=O)n(C4CCC(N5CC(F)C5)CC4)c3cc2C(C)C)cn2ncnc2c1C` (stereo not drawn) [Example 280, 5-(7,8-dimethyl-[1,2,4]triazolo[1,5-a]pyridin-6-yl)-1-(4-(3-fluoroazetidin-1-yl)cyclohexyl)-6-isopropyl-1,3-dihydro-2H-benzo[d]imidazol-2-one] stands 8.56; under `COCCNC1CCC(n2c(=O)[nH]c3cc(-c4cn5ncnc5c(OC)c4C)c(C(C)C)cc32)CC1` (stereo not drawn) [Example 257], 8.86. The result for `Cc1c(-c2cc3[nH]c(=O)n(C4CCC(N5CCC6(CC5)COC6)CC4)c3cc2C(C)C)cn2ncnc2c1C` (single isomer, unassigned) [Example 282, 1-(4-(2-oxa-7-azaspiro[3.5]nonan-7-yl)cyclohexyl)-5-(7,8-dimethyl-[1,2,4]triazolo[1,5-a]pyridin-6-yl)-6-isopropyl-1,3-dihydro-2H-benzo[d]imidazol-2-one] reads 9.29; that for `COc1cc(-c2cc3[nH]c(=O)n(C4CCC(N5CCC(F)(F)C5)CC4)c3cc2C(C)C)cn2ncnc12` (single isomer, unassigned) [Example 295, 1-(4-(3,3-difluoropyrrolidin-1-yl)cyclohexyl)-6-isopropyl-5-(8-methoxy-[1,2,4]triazolo[1,5-a]pyridin-6-yl)-1,3-dihydro-2H-benzo[d]imidazol-2-one], 8.10. Compound `COc1cc(-c2cc3[nH]c(=O)n(C4CCC(N5C6CCC5COC6)CC4)c3cc2C(C)C)cn2ncnc12` (single isomer, unassigned) [Example 252, 1-(4-(3-oxa-8-azabicyclo[3.2.1]octan-8-yl)cyclohexyl)-6-isopropyl-5-(8-methoxy-[1,2,4]triazolo[1,5-a]pyridin-6-yl)-1,3-dihydro-2H-benzo[d]imidazol-2-one] showed a pIC50 of 7.61. In turn, `COCCNC1CCC(n2c(=O)[nH]c3cc(-c4cn5ncnc5c(OC)c4C)c(C(C)C)cc32)CC1` (stereo not drawn) [Example 258] showed a negative-log IC50 (pIC50) of 9.22. `COc1cc(-c2cc3[nH]c(=O)n(C4CCC(N5CCC(S(C)(=O)=O)C5)CC4)c3cc2C(C)C)cn2ncnc12` (single isomer, unassigned) [Example 289, 6-isopropyl-5-(8-methoxy-[1,2,4]triazolo[1,5-a]pyridin-6-yl)-1-(4-(3-(methylsulfonyl)pyrrolidin-1-yl)cyclohexyl)-1,3-dihydro-2H-benzo[d]imidazol-2-one] had a negative-log IC50 (pIC50) of 8.35.

Compound `COc1c(C)c(-c2cc3[nH]c(=O)n(C4CCC(N5CC(OC)C5)CC4)c3cc2C(C)C)cn2ncnc12` (stereo not drawn) [Example 265, 6-isopropyl-5-(8-methoxy-7-methyl-[1,2,4]triazolo[1,5-a]pyridin-6-yl)-1-(4-(3-methoxyazetidin-1-yl)cyclohexyl)-1,3-dihydro-2H-benzo[d]imidazol-2-one] had a negative-log IC50 (pIC50) of 8.57. Under `Cc1c(-c2cc3[nH]c(=O)n(C4CCC(N5CC6(COC6)C5)CC4)c3cc2C(C)C)cn2ncnc2c1C` (single isomer, unassigned) [Example 298] stands 8.42; under `COc1c(C)c(-c2cc3[nH]c(=O)n(C4CCC(N5CC(F)C5)CC4)c3cc2C(C)C)cn2ncnc12` (single isomer, unassigned) [Example 264, 1-(4-(3-fluoroazetidin-1-yl)cyclohexyl)-6-isopropyl-5-(8-methoxy-7-methyl-[1,2,4]triazolo[1,5-a]pyridin-6-yl)-1,3-dihydro-2H-benzo[d]imidazol-2-one], 8.23.
